Laboratory results from patent EP1134585B1, “Biosensor and method for the monitoring of herbicides” (CONSIGLIO NAZIONALE DELLE RICERCHE, priority 2000, dated 2001).

What was measured:
PhC2,6―Pro = details: cited from earlier work
Gly228->Val = details: cited from earlier work
Gly228->Arg = details: cited from earlier work
I1e229→Met = details: R. capsulatus; cited from earlier work
Thr226->Ala = details: cited from earlier work
[1] = system: thylakoids from Amaranthus retroflexus, Mutant; format: biochemical; details: herbicide concentration 10^-6 M
PS II = PS II treated with CdCl2, refrigeration at 5°C, flow 0,2-2,0 ml/m
Text: To further increase the stability of the biomediator the usefulness of a system for the refrigeration of the solution containing herbicide forwarded into the measuring cell experimentally was observed.

Thr226->Met = details: cited from earlier work
[2] = system: PS II isolated from thermophilic cyanobacteria; details: immobilized PS II, Clark electrode (Koblizek et al.); cited from earlier work
D1 protein A/a251->lIe = D1 protein A/a251->lIe (Chlamydomonas reinhardtii, UniProt P07753, A251I); details: cited from earlier work
D1 protein Phe255->Tyr [3] = biological target: D1 protein Phe255->Tyr (Chlamydomonas reinhardtii, UniProt P07753, F255Y); details: code Ar207+; cited from earlier work
I1e229->Cys = details: cited from earlier work
Vicia faba thylakoids = Vicia faba thylakoids (Vicia faba, UniProt P13910); assay: Biosensor fluorescence response, immobilized thylakoids (Table A); format: biochemical; details: contact time 20 min
Text: (§1) According to a specially advantageous embodiment, Bioherbi is an equipment weighing in all about […], occupies a space of about 30x30x20 cm and is constituted as reported below. • a) flow cell wherein the biomediator is immobilized. […] The black plastic material allows to fit the biomediator in the dark. The biomediator in entrapped in the inner section. The surface tightness of the reading hole is obtained using a glass cover plate for microscopy. The inner cell, where the mediator is entrapped, has un volume from 50 to 300 µl. • b) a peristaltic pump is the hydraulic part to withdraw the sample containing the herbicide to be analyzed, which moves said sample through the flow cell and brings it in close contact with the biomediator. According to a specially advantageous embodiment a single block is used as holder for the herbicide and peristaltic pump. The flow can be varied from 0,2 to 2 ml/min depending on the sample. Higher flow increases the sensitivity to the herbicide because the latter interacts with a higher number of bonding sites on PS II. By laboratory tests it was found out that, when the solution of the herbicide flows, the efficiency of the fluorescence measure could be impaired by light scattering effects. Accordingly it is preferred to carry out the measure in stopped-flow conditions using a flow switch. The biomediator immobilized within the flow cell, following each measure, is washed and regenerated by a suitable buffer solution. A valve allows to forward alternatively the flow of the buffer or the solution containing the herbicide to be analyzed. • c) optical fiber fluorescence sensor closely connected to the flow cell. The fluorescence emitted from green plants depends on the photosynthetic activity. Recent studies on fluorescence measuring techniques made this feature a very important tool in the basic and applied research about the plant physiology (D Lazar, 1999, Biochim Biophys Acta 1-28). Bioherbi analyzer measures the fluorescence emitted from photosynthetic complexes and modifications determined by the presence of herbicide. The sensor is tightly connected to the flow cell to avoid any infiltration of external light and provides the excitation light detecting the fluorescence signal. The excitation light is emitted from an emitting diode at a very narrow wavelength of about 650 nm, which is quickly absorbed by the Photosystem II of the photosynthetic organisms and has the advantage in that it provides light with reduced heating and emits the signal very quickly. A "feedback" optical circuit controls and adjusts the variations of the intensity of the emitted light also resulting from variations of ambient temperature. The analyzer consists of an high capacity photodiode associated to an amplifier. The optical system responds perfectly to the fluorescence emission wavelength of 700 nm and stops the reflection light of lower wavelength resulting from the emission light. The sensor is connected to the control computer by an about 30 cm long fiber. According to a variation of the biosensor we used a more complex fluorescence system, adjustable as the excitation light in order to allow the use, as biomediator, of photosynthetic organisms requiring specific wavelengths. • e) a control and data processing computer. […] The concentration of the herbicide is proportional to the area over the fluorescence curve (Table 1A-B); the inhibition of this area is closely related to the washing times whereby it is possible to determinate the concentration of the herbicide also using the washing time required to obtain an almost complete inhibition of the area (see Table 1C). The fluorescence signal received by the sensor is processed within the control chamber by transduction systems of the signal and analog-to-digital converters. The system is computerized with a very sophisticated microprocessor able to process the data of the fluorescence signal. […]

Phe216→Val = details: cited from earlier work
Phe216->Leu = details: cited from earlier work
Tyr222->Phe = details: code T4; cited from earlier work
monoclonal antibodies = details: ELISA (Schneider et al. 1994); cited from earlier work
[4] = biological target: T1, thylakoids from Spinacia oleracea (Spinacia oleracea, UniProt P69560); assay: Biosensor fluorescence response (Tables B and C); format: biochemical; details: for inhibition at 0.01 µM: control printed as 100
T1 construct: biomediator based on thylakoids from Spinacia oleracea; from tissue; host or cells: thylakoids isolated from mature spinach plants
Text: as §1

D1 protein Asn266->Asp = details: code loxlla; cited from earlier work
Phe216->Thr = details: cited from earlier work
[5] = system: thylakoids from Amaranthus retroflexus, Wild-type; assay: Biosensor fluorescence response (Table D), wild-type biomediator; format: biochemical; details: herbicide concentration 10^-6 M
I1e229->Ala = details: cited from earlier work
[6] = biological target: D1 protein Phe211→Ala Met214→Thr (Chlamydomonas reinhardtii, UniProt P07753, F211A/M214T); details: cited from earlier work
I1e228->Leu = details: cited from earlier work
D1 protein Val219->Ile = D1 protein Val219->Ile (Chlamydomonas reinhardtii, UniProt P07753, V219I); details: code Dr2; cited from earlier work
D1 protein Phe255->Tyr [7] = biological target: D1 protein Phe255->Tyr (Synechococcus elongatus, UniProt P04996, F255Y); details: Synachococcus PCC7942, code TyrS; cited from earlier work
D1 protein A1a251→Gly = D1 protein A1a251→Gly (Chlamydomonas reinhardtii, UniProt P07753, A251G); details: cited from earlier work
[8] = biological target: D1 protein Ala250→Ser Phe255→IIe (Chlamydomonas reinhardtii, UniProt P07753, A250S/F255I); details: cited from earlier work
D1 protein Ala250->Asn = D1 protein Ala250->Asn (Chlamydomonas reinhardtii, UniProt P07753, A250N); details: cited from earlier work
D1 protein Ala250->Arg = D1 protein Ala250->Arg (Chlamydomonas reinhardtii, UniProt P07753, A250R); details: cited from earlier work
[9] = biological target: D1 protein Phe211->Ile Met214->Gly (Chlamydomonas reinhardtii, UniProt P07753, F211I/M214G); details: cited from earlier work
D1 protein Ala250->Asp = D1 protein Ala250->Asp (Chlamydomonas reinhardtii, UniProt P07753, A250D); details: cited from earlier work
[10] = biological target: D1 protein Phe255->Tyr Ser264->Ala (Synechococcus elongatus, UniProt P04996, F255Y/S264A); details: code D5; cited from earlier work
D1 protein Arg257->Val = D1 protein Arg257->Val (Synechocystis sp., UniProt P16033, R257V); details: cited from earlier work
[11] = biological target: D1 protein Phe211→Gly Met214→Gln (Chlamydomonas reinhardtii, UniProt P07753, F211G/M214Q); details: cited from earlier work
D1 protein Ser264->Thr = details: Euglena, code MSI; cited from earlier work
D1 protein A1a250->Tyr = D1 protein A1a250->Tyr (Chlamydomonas reinhardtii, UniProt P07753, A250Y); details: cited from earlier work
D1 protein Ser264->Ala [12] = biological target: D1 protein Ser264->Ala (Synechococcus elongatus, UniProt P04996, S264A); details: Synechococcus sp. PCC7942, code Dil; cited from earlier work
D1 protein Ser264->Ala [13] = biological target: D1 protein Ser264->Ala (Chlamydomonas reinhardtii, UniProt P07753, S264A); details: codes MZ1 MZ3 MZ5; cited from earlier work
[14] = biological target: D1 protein Ser264→Ala Asn266→Thr (Chlamydomonas reinhardtii, UniProt P07753, N266T/S264A); details: cited from earlier work
[15] = biological target: D1 protein I1e259->Ser Ser264->Ala Asn266->Thr (Chlamydomonas reinhardtii, UniProt P07753, I259S/N266T/S264A); details: cited from earlier work
[16] = biological target: D1 protein Leu275->Phe (MZ4) (Chlamydomonas reinhardtii, UniProt P07753, L275F); details: code MZ4; cited from earlier work
[17] = Diuron 10^-9 M, after regeneration
[18] = Table B, first column Diuron 10^-8 M, contact time 15 min
[19] = Table B, second column Diuron 10^-8 M, contact time 15 min

## CN(C)C(=O)Nc1ccc(Cl)c(Cl)c1 [Diuron]
PhC2,6―Pro
  Resistance R/S: patron 1
Gly228->Val
  Resistance R/S: Diuron 1
Gly228->Arg
  Resistance R/S: Diuron 1
I1e229→Met
  Resistance R/S: Diuron 1
Thr226->Ala
  Resistance R/S: Diuron 1
[1]
  Area % inhibition Mutant: 96%
PS II
  sensitivity (concentration): lower than nanomolar
Thr226->Met
  Resistance R/S: Diuron 1
[2]
  sensitivity: 10^-10 mol/l
D1 protein A/a251->lIe
  Supersensitivity R/S: Diuron 0,6
D1 protein Phe255->Tyr [3]
  Supersensitivity R/S: Diuron 0,6-0,8
I1e229->Cys
  Resistance R/S: Diuron 1
Vicia faba thylakoids; Diuron 10^-6 M, area over the fluorescence curve
  Area: 10300
Vicia faba thylakoids; Diuron 10^-6 M, inhibition of area vs control
  inhibition at 1 µM: 93%
Vicia faba thylakoids; Diuron 10^-6 M, mean of at least three measures
  Fv/Fm: 0,540
Vicia faba thylakoids; [17]
  Area: 4030
  Fv/Fm: 0,475
  inhibition at 0.001 µM: 60%
Phe216→Val
  Resistance R/S: Diuron 1
Phe216->Leu
  Resistance R/S: Diuron 1
Tyr222->Phe
  Supersensitivity R/S: Diuron <0,0001
Monoclonal antibodies
  sensitivity: 200 pM
[4]; [18]
  Area: 12700
  Fv/Fm: 0,768
  inhibition at 0.01 µM: 88%
[4]; [19]
  Area: 10400
  Fv/Fm: 0,756
  inhibition at 0.01 µM: 71%
[4]; Table C, Diuron 10^-7M, 10 min
  Area: 7830
  Fv/Fm: 0,746
  inhibition at 0.1 µM: 32%
[4]; Table C, Diuron 10^-7M, 40 min
  Area: 6120
  Fv/Fm: 0,711
  inhibition at 0.1 µM: 47%
[4]; Table C, Diuron 10^-7M, 50 min
  Area: 5090
  Fv/Fm: 0,700
  inhibition at 0.1 µM: 56%
[4]; Table C, Diuron 10^-7M, 60 min
  Area: 4160
  Fv/Fm: 0,684
  inhibition at 0.1 µM: 64%
D1 protein Asn266->Asp
  Supersensitivity R/S: Diuron 0,7
Phe216->Thr
  Resistance R/S: Diuron 1
[5]
  Area % inhibition Wild-type: 99%
I1e229->Ala
  Resistance R/S: Diuron 1
[6]
  Supersensitivity R/S: Diuron 0,8
I1e228->Leu
  Resistance R/S: Diuron 1

## O=c1[nH]c2c(c(=O)n1C1CCCCC1)CCC2 [Lenacil]
D1 protein Val219->Ile
  Supersensitivity R/S: Lenacil 0,8

## CSc1nnc(C(C)(C)C)c(=O)n1N [Metribuzin]
D1 protein Phe255->Tyr [7]
  Supersensitivity R/S: Metribuzin 0,8
D1 protein Phe255->Tyr [3]
  Supersensitivity R/S: Metribuzin 0,6
D1 protein A1a251→Gly
  Supersensitivity R/S: Metribuzin 0,6
[8]
  Supersensitivity R/S: 0,5
D1 protein Ala250->Asn
  Supersensitivity R/S: Metribuzin 0,8
D1 protein Ala250->Arg
  Supersensitivity R/S: Metribuzin 0,5
[9]
  Supersensitivity R/S: 0,5

## N#Cc1cc(I)c(O)c(I)c1 [loxynil]
D1 protein Ala250->Asp
  Supersensitivity R/S: loxynil 0,2
[10]
  Supersensitivity R/S: loxynil 0,5
D1 protein Arg257->Val
  Supersensitivity R/S: loxynil 0,8
PS II
  sensitivity (concentration): one order of magnitude higher
[11]
  Supersensitivity R/S: loxynil 0,8
D1 protein Ser264->Thr
  Supersensitivity R/S: loxynil 0,2
Tyr222->Phe
  Supersensitivity R/S: Iloxynil <0,01
D1 protein A1a250->Tyr
  Supersensitivity R/S: loxynil 0,8
D1 protein Ser264->Ala [12]
  Supersensitivity R/S: loxynil 0,4
D1 protein Ser264->Ala [13]
  Supersensitivity R/S: loxynil 0,5
[8]
  Supersensitivity R/S: loxynil 0,2
[14]
  Supersensitivity R/S: loxynil 0,8
[15]
  Supersensitivity R/S: loxynil 0,13
[16]
  Supersensitivity R/S: locynil 0,2
D1 protein Ala250->Arg
  Supersensitivity R/S: loxynil 0,5
